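Method: 48-hour compound exposure of cells in 96-well plates, five concentrations, linear interpolation of endpoints. GI50 is the concentration that inhibits growth by half. TGI marks complete inhibition of growth.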
Assays:
Test in all cases: growth of human tumour cells (NCI), 48 h
[1] = system: KM12 colon
[2] = system: OVCAR-3 ovarian
[3] = system: CCRF-CEM leukemia
[4] = system: RPMI-8226 leukemia
[5] = system: TK-10 renal
[6] = system: NCI-H23 lung
[7] = system: SNB-19 CNS
[8] = system: NCI-H226 lung

| SMILES | TGI [1] [µM] | TGI [2] [µM] | TGI [3] [µM] | TGI [4] [µM] | TGI [5] [µM] | TGI [6] [µM] | TGI [7] [µM] | TGI [8] [µM] | GI50 [1] [µM] | GI50 [8] [µM] | GI50 [2] [µM] | GI50 [3] [µM] | GI50 [6] [µM] | GI50 [7] [µM] | GI50 [4] [µM] | GI50 [5] [µM] |
| --- | --- | --- | --- | --- | --- | --- | --- | --- | --- | --- | --- | --- | --- | --- | --- | --- |
| COc1c(NC(C)=O)cc(C)cc1NC(C)=O | > 100 | > 100 | > 100 | > 100 | > 100 |  |  |  |  |  |  |  |  |  |  |  |
| COC(=O)C1=C(C(=O)OC)C23CC1C1C(C(=O)OC)=C(C(=O)OC)C12C1C=CC3C2C(=O)OC(=O)C21 (configuration not stated) | > 100 | 17.6 | > 100 | > 100 | > 100 | > 100 | > 100 |  |  |  |  |  |  |  |  |  |
| NNC(=S)N/N=C(/C(=O)Nc1cc(Cl)ccc1Cl)C1C(=O)Nc2ccccc2S1=O (configuration not stated) | > 100 | > 100 | > 100 |  | > 100 | > 100 | > 100 | > 100 |  |  |  |  |  |  |  |  |
| COc1ccc(C(=O)C(C(=O)C(=O)Nc2ccc(Cl)c(Cl)c2)c2ccc(OC)cc2)cc1 (configuration not stated) | > 100 | > 100 |  | > 100 | > 100 | > 100 | > 100 | > 100 |  |  |  |  |  |  |  |  |
| CC(C)(C)CC(C)(C)c1cc2c(O)c(c1)Cc1cc(C(C)(C)CC(C)(C)C)cc(c1O)Cc1cc(C(C)(C)CC(C)(C)C)cc(c1O)Cc1cc(C(C)(C)CC(C)(C)C)cc(c1O)Cc1cc(C(C)(C)CC(C)(C)C)cc(c1O)Cc1cc(C(C)(C)CC(C)(C)C)cc(c1O)C2 | > 100 | > 100 | > 100 | > 100 | > 100 | > 100 | > 100 |  |  |  |  |  |  |  |  |  |
| CCOC(=O)C1=C(O)CSC1=Nc1ccccc1 | > 100 | > 100 |  | > 100 | > 100 | > 100 | > 100 | > 100 |  |  |  |  |  |  |  |  |
| CN[C@@H](C)[C@@H](N)c1ccccc1 |  | > 100 | > 100 | > 100 | > 100 | > 100 | > 100 | > 100 |  |  |  |  |  |  |  |  |
| CC(=O)c1cccc(NC(=O)C(=O)C(C2OC(=O)c3ccccc32)[N+](=O)[O-])c1 (configuration not stated) | > 100 | > 100 | > 100 | > 100 | > 100 | > 100 | > 100 | > 100 |  |  |  |  |  |  |  |  |
| CCOC(=O)c1cc2c(nc1N)-c1ncccc1CC2 | > 100 | > 100 | > 100 | 68.8 | > 100 | > 100 | > 100 | > 100 |  |  |  |  |  |  |  |  |
| COc1ccc(N=Nc2c(-c3ccccc3)nn(C(=O)CC(=O)Nc3cccc(Cl)c3)c2-c2ccccc2)cc1 | > 100 | > 100 | > 100 | > 100 | > 100 | > 100 | > 100 | 68.1 |  |  |  |  |  |  |  |  |
| Cc1c(C(=O)C/C(=N/NC(=O)C[n+]2ccccc2)C(=O)Nc2ccccc2)[n+](=O)c2ccccc2n1O | > 100 | > 100 | > 100 | > 100 | > 100 | > 100 | > 100 | > 100 |  |  |  |  |  |  |  |  |
| CC(=O)C1=C(C)Cn2c(=O)c3ccccc3c(=O)n2C1 | > 100 | > 100 | > 100 | > 100 | > 100 | > 100 | > 100 | > 100 |  |  |  |  |  |  |  |  |
| CCCCCCCCOC(CO)CO |  | > 100 | > 100 | > 100 | > 100 | > 100 | > 100 | > 100 |  |  |  |  |  |  |  |  |
| C[C@]12CCc3nonc3C1CC[C@@H]1C2CC[C@]2(C)NC(=O)CCC12 (some centres not stated) | > 100 | > 100 | > 100 | > 100 | > 100 | > 100 | > 100 | > 100 |  |  |  |  |  |  |  |  |
| O=C(c1cc2ccccc2o1)N(Cc1ccccc1)c1ccccc1 | 46.6 | 41.2 | 37.6 | 49.8 | > 100 | 71.2 | > 100 | 34.9 |  |  |  |  |  |  |  |  |
| O=c1cccccc1NCCCCCCNc1cccccc1=O | > 100 | > 100 | > 100 | > 100 | > 100 | > 100 | > 100 | > 100 |  |  |  |  |  |  |  |  |
| CC/C(=C(/CC)c1ccc([O-])cc1)c1ccc([O-])cc1.CC/C(=C(\CC)c1ccc([O-])cc1)c1ccc([O-])cc1.O=C([CH-]C(=O)c1ccccc1)c1ccccc1.O=C([CH-]C(=O)c1ccccc1)c1ccccc1.O=C([CH-]C(=O)c1ccccc1)c1ccccc1.O=C([CH-]C(=O)c1ccccc1)c1ccccc1.[Ti+4].[Ti+4] | > 100 | > 100 | 93.8 | > 100 | > 100 | 97.3 | 56.2 | 61.2 | 26.3 | 28.1 | 24.9 | 21 | 25.9 | 22.6 | 71.4 | 45.2 |
| O=C1c2ccccc2C(=O)c2c(NCCNCCO)ccc(O)c21 | 8.1 | 19.5 | 17.3 | 11.7 | 15.3 | 12 | 14.2 | 6.56 |  |  |  |  |  |  |  |  |
